The source of these data is patent US20250127913A1, “BIFUNCTIONAL FOLATE RECEPTOR BINDING COMPOUNDS” (LYCIA THERAPEUTICS, INC., priority 2021, published 2025).

The target of test [1] is FOLR2 (Homo sapiens (Human), UniProt P14207). Put plainly: SPR binding kinetics of compounds to folate receptor (FOLR2 immobilized on CM5 chip). As to the method:
A Biacore 8K+ was used to measure the association and dissociation rates of example compounds to FOLR2 (Acro Biosystems, Cat: F02-H5223-100 μg). Briefly, FOLR2 was reconstituted according to the manufacture's instructions to 200 μg/mL. Both the active and reference surfaces of a Cytiva CM5 Series S Sensor Chip were activated with a 1:1 mixture of 400 mM EDC and 100 mM NHS for 420 s at 10 μL/min. 25 μg/mL FOLR2 diluted in Sodium Acetate pH 5.5 was injected on the active channel (Flow Cell 2) for 420 s at 10p/min. Both the reference and active surfaces were then capped with 1M ethanolamine, pH 8.5 for 420 s, achieving an immobilization level of ˜4200 RU. Example compounds were serially diluted 1:1 in running buffer (10 mM HEPES, 150 mM NaCl, 0.05% T20, pH 7.5, 2% DMSO) from 100 nM to 3.125 nM and flowed over the active and reference surfaces for 120 s, and then allowed to dissociate in running buffer for 600 s, at 30 uL/min. The FOLR2 immobilized active surface and the reference surface were regenerated with a 30 s pulse of Sodium Acetate pH 5.5 at 30 μL/min. Sensorgrams were solvent corrected, double-referenced, and the data fitted and analyzed in Biacore Insight Evaluation Software Version 3.0.11.15423.
(Surface plasmon resonance follows binding to a sensor surface in real time, without labels.)

Test [2] concerns the target TNFα trimer (Homo sapiens, UniProt P01375). Put plainly: SPR binding kinetics of compounds to TNFα trimer. The conditions noted are these: class symbols. As to the method: Streptavidin 100 μg/mL Streptavidin (Invitrogen Cat #: 434302) diluted in 10 mM sodium acetate, pH 4.5) was immobilized to both the reference and active surfaces as described in Example 51. The surfaces were conditioned with three injections of running Buffer (10 mM HEPES, 150 mMNaCl, 0.05% T20, pH 7.5, 2% DMSO) at a flow rate of 10 μL/min, Contact time: 60 s. Flow rate: 10 μL/min. The active surface was treated with biotinylated linked TNFα trimer 20 μg/mL diluted in running buffer at a flow rate of 5 μL/min contact time: 600 s, yielding a final response of ˜3000 RU. Example compounds were then serially diluted 1:1 in running buffer (10 mM HEPES, 150 mM NaCl, 0.05% T20, pH 7.5, 2% DMSO) from 30 uM to 937.5 nM and flowed over the active and reference surfaces from lowest concentration to greatest concentration in the single-cycle kinetics format, and then allowed to dissociate in running buffer for 7200 s, at 30 μL/min. Sensorgrams were solvent corrected, double-referenced, and the data fitted and analyzed in Biacore Insight Evaluation Software Version 3.0.11.15423.

Test [3] concerns TNFα trimer complex to folate receptor (FOLR2). Put plainly: SPR co-engagement of compound-TNFα trimer complex to folate receptor. Particulars: TNFα + 10 nM compound binding FOLR2. As to the method:
The active (Flow cell 2) surfaces of a Cytiva CM5 Series S Sensor Chip functionalized with FOLR2 as described in Example 58. Example compounds were diluted to 10 nM with 50 and 100 nM TNFα single chain trimer or 150 nM and 300 nM TNFα native monomer in running buffer (10 mM HEPES, 150 mM NaCl, 0.05% T20, pH 7.5, 2% DMSO), allowed to incubate for 5 hours at 25° C. and then flowed over the active and reference surfaces for 110 s, and then allowed to dissociate in running buffer for 600 s, at a flow rate of 30 μL/min. The FOLR2 immobilized active surface and the reference surface were regenerated with a 30 s pulse of 4M MgCl2 at 30 μL/min then allowed to equilibrate 240 s. Sensorgrams were solvent corrected, double-referenced, and the data fitted and analyzed in Biacore Insight Evaluation Software Version 3.0.11.15423.

In test [4] the test system is THP-1 cells. Description: Compound mediated uptake of TNFα-pHrodo in THP-1 cells (flow cytometry). Type of test: cell-based. The conditions noted are these: ΔMFI compared with I-17, uptake at 10 μM. Further details: key to Uptake in THP1 cells (run) 2 / Uptake in THP1 cells (run) 3 / Uptake in THP1 cells (run) 4: + = ΔMFI less than that of I-17; ++ = ΔMFI ≈ to that of I-17; +++ = ΔMFI greater than that of I-17. For orientation: In flow cytometry, cells or beads pass a laser one at a time.

The test system of test [5] is THP-1 cells overexpressing FOLR2. Put plainly: LYTAC mediated uptake of TNFα-Alexa647 in THP-1 WT / FOLR2 overexpressing cells (ΔMFI). Type of test: cell-based. The conditions noted are these: 300 nM-0.137 nM, 2 h. On the procedure: Hetero-bifunctional small molecule LYTACs consisting of a TNFα binding moiety, linker and folate receptor binding moiety were tested to determine if folate receptor can internalize TNFα. THP-1 cells overexpressing FOLR2 were generated by stable transduction with lentivirus encoding FOLR2-IRES-GFP. THP-1 WT and FOLR2 overexpressing cells were maintained in RPMI (Gibco #61870143) with 10% v/v FBS (VWR #89510-188) with 2 mM L-alanyl-L-glutamine dipeptide, 100 units/ml penicillin and 100 μg/ml streptomycin (Gibco #27016021). Stable FOLR2 over-expression cells were mixed at a 50:50 ratio with WT THP-1 cells and seeded in a 96 well plate at 50,000 cells in 100 μl folate-free RPMI (Gibco […]) with 10% v/v FBS, 2 mM L-alanyl-L-glutamine dipeptide, 100 units/ml penicillin and 100 μg/ml streptomycin. In a separate 96 well plate, TNFα/folate hetero-bifunctional small molecules were mixed with unmodified TNFα conjugated with Alexa647 by non-specific lysine chemistry. Small molecule LYTACs at a concentration of 600 nM (2× final concentration) in 100 μl folate-free RPMI+10% FBS were incubated at room temperature for 30 mins. The immune complex was serially diluted 3-fold to produce a dose response range from 300 nM-0.137 nM (final concentration). The TNFα/LYTAC complex mixture was transferred to the plate containing a 50:50 mixture of THP1 WT and FOLR2 over expressing cells and incubated for 2 h at 37° C. with 5% C02. Uptake in WT and FOLR2 overexpressing cells was evaluated by flow cytometry by comparing the median fluorescence intensity of […] in the GFP negative (WT) and GFP positive (FOLR2) populations and was quantified as the difference between the mean fluorescence intensities in the APC channel for the GFP positive and GFP negative populations (ΔMFI).

The target in test [6] is TNFα (Homo sapiens (Human), UniProt P01375). Put plainly: TNFα binding assay (time-resolved FRET, biotinylated TNFα). Particulars: 1 nM biotinylated TNFα, 80 nM probe, 16 hr incubation; read-out: TNF-HTRF-biotin. The gist of the method:
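Time-resolved FRET displacement of 80 nM acceptor probe from 1 nM biotinylated TNFα with 0.5 nM streptavidin-Tb in 20 mM Hepes pH 7.5, 10 mM MgCl2, 0.015% Tween-20, 0.05 mg/ml BSA, 2% DMSO. Read (ex 340, em 490/520 nm) after 16 hr. Duplicate dose responses normalized to DMSO and 100 nM reference inhibitor; IC50 by 4-parameter fit.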
In general terms: Time-resolved FRET reads energy transfer from a long-lived donor to a nearby acceptor.

The target of test [7] is T1, folate receptor beta (Homo sapiens (Human), UniProt P14207). Put plainly: Folate receptor binding assay (fluorescence polarization). The conditions noted are these: 2.5 nM folate receptor beta, 2 nM FR-Cy probe, 2 hr incubation; read-out: FOLR2-FP. The gist of the method: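 Fluorescence polarization competition with 2 nM folate–Cy5 probe and 2.5 nM receptor in 20 mM Hepes pH 7.5, 250 mM NaCl, Tween-20, 1% DMSO; 3-fold dilutions, 2 h incubation, ex 620/em 688 nm. Duplicates normalized to DMSO (high) and 1 μM folic acid (low); IC50 from 4-parameter fit.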
T1 sequence (P14207 17-255): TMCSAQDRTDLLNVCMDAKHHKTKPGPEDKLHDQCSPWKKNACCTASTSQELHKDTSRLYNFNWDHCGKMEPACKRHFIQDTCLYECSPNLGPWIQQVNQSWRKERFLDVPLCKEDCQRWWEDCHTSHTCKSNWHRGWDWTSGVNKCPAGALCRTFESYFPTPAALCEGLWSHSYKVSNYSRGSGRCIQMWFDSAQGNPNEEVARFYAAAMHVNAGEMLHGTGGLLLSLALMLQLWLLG

The target of test [8] is T1, folate receptor beta. Put plainly: Folate receptor SPR assay (biotinylated folate receptor beta on streptavidin chip). Type of test: binding. A digest of the protocol: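 Biotinylated receptor captured on a streptavidin SPR chip; multi-cycle kinetics at 25 °C with 8 compound concentrations (2-fold dilutions) in HEPES pH 7.5, 150 mM NaCl, 0.05% Tween 20, 2% DMSO. Association 120 s, dissociation 600 s; binding parameters from 1:1 model fit.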

In test [9] the target is TNFα and streptavidin immobilized FOL2R (Homo sapiens (Human), UniProt P01375+P14207). Description: Ternary complex SPR assay. The conditions noted are these: 10 nM compound, max response normalized to expected response. Type of test: binding. The gist of the method:
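Biotinylated folate receptor beta captured at ~1800 RU on a streptavidin chip; untagged TNF preincubated 6 hr at 25° C with 10 nM compound in HEPES pH 7.5, 150 mM NaCl, 0.05% Tween 20, 2% DMSO, then injected (110 s association, 600 s dissociation). Maximum response normalized to maximum expected response per compound.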

One may read the Kd as the concentration at which binding is half-saturated.

Sequence of TNFα and streptavidin immobilized FOL2R (P14207 17-230): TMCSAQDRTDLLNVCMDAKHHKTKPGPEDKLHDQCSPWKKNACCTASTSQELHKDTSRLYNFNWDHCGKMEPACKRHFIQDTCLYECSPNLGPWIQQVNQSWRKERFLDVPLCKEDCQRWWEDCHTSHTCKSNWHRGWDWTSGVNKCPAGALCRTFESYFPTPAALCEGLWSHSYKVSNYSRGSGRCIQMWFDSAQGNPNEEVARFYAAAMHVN
Sequence of TNFα and streptavidin immobilized FOL2R (P01375 77-233): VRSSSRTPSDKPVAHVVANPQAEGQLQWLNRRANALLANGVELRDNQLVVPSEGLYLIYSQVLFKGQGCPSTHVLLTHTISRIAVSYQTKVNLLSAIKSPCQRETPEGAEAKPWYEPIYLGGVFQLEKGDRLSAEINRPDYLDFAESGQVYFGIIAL
Sequence of FOLR2 (P14207 17-255): as the sequence (P14207 17-255) above
Sequence of TNFα trimer (P01375 77-233 limits assumed): as the sequence (P01375 77-233) above
Sequence of TNFα (P01375 77-233): as above

`Cc1nc2ccc(-c3ccc(N4CCN(CCOCCn5cc(COCCOCCOCCOCCNC(=O)CC[C@H](NC(=O)c6ccc(NCc7cnc8nc(N)nc(O)c8n7)cc6)C(=O)O)nn5)CC4)nc3)cn2c1Cc1ccccc1OC(F)F` (racemic) [Compound I-22, rac-(R)-18-(4-(((2-amino-4-hydroxypteridin-6-yl)methyl)amino)benzamido)-1-(1-(2-(2-(4-(5-(3-(2-(difluoromethoxy)benzyl)-2-methylimidazo[1,2-a]pyridin-6-yl)pyridin-2-yl)piperazin-1-yl)ethoxy)ethyl)-1H-1,2,3-triazol-4-yl)-15-oxo-2,5,8,11-tetraoxa-14-azanonadecan-19-oic acid] yielded a Kd in test [1] of 0.3 nM. In [2], this compound came in with an equilibrium dissociation constant (Kd) below 5000 nM. Also, in [3], the “co-engagement / complex formation observed on SPR” value is reported as “complex formation observed”. In addition, in test [4], the “Uptake in THP1 cells (run) 2” value is “+”, the “Uptake in THP1 cells (run) 3” value was “+” and the “Uptake in THP1 cells (run) 4” value was “+”.

`Cc1nc2cc(F)c(-c3cnc(OCCCCCn4cc(CNC(=O)CC[C@H](NC(=O)c5ccc(NCc6cnc7nc(N)nc(O)c7n6)cc5)C(=O)O)nn4)nc3)nc2c(N[C@H](C)c2cc(C#N)ccc2F)c1Cl` [Compound I-14, N2-(4-(((2-amino-4-hydroxypteridin-6-yl)methyl)amino)benzoyl)-N5-((1-(5-((5-(7-chloro-8-(((R)-1-(5-cyano-2-fluorophenyl)ethyl)amino)-3-fluoro-6-methyl-1,5-naphthyridin-2-yl)pyrimidin-2-yl)oxy)pentyl)-1H-1,2,3-triazol-4-yl)methyl)-L-glutamine] showed a Kd in test [1] of 0.2 nM. The compound further showed a Kd in test [2] below 100 nM. Moreover, the “co-engagement / complex formation observed on SPR” value in [3] was “complex formation observed”. Further, in test [4], the “Uptake in THP1 cells (run) 2” value was “+” and the “Uptake in THP1 cells (run) 3” value is recorded as “++”.

`Cc1nc2cc(F)c(-c3cnc(OCCCCCn4cc(COCCNC(=O)CC[C@H](NC(=O)c5ccc(NCc6cnc7nc(N)nc(O)c7n6)cc5)C(=O)O)nn4)nc3)nc2c(N[C@H](C)c2cc(C#N)ccc2F)c1Cl` [Compound I-15, N2-(4-(((2-amino-4-hydroxypteridin-6-yl)methyl)amino)benzoyl)-N5-(2-((1-(5-((5-(7-chloro-8-((I-1-(5-cyano-2-fluorophenyl)ethyl)amino)-3-fluoro-6-methyl-1,5-naphthyridin-2-yl)pyrimidin-2-yl)oxy)pentyl)-1H-1,2,3-triazol 4-yl)methoxy)ethyl)-L-glutamine]: the Kd in test [1] was 0.3 nM; in test [2], below 100 nM. Moreover, the “co-engagement / complex formation observed on SPR” value in [3] was “complex formation observed”. Besides, the “Uptake in THP1 cells (run) 3” value in test [4] is “+++”. Also, the “Uptake in THP1 cells (run) 4” value in test [4] was “++”.

In the case of `Cc1nc2cc(F)c(-c3cnc(N4CCN(C(=O)COCCOCCOCCOCCOCCOCCn5cc(CC[C@H](NC(=O)c6ccc(NCc7cnc8nc(N)nc(O)c8n7)cc6)C(=O)O)nn5)CC4)nc3)nc2c(N[C@H](C)c2cc(C#N)ccc2F)c1Cl` [Compound I-92], the “uptake of TNFα compared the no compound control (DMSO)” value in test [5] was “dose-dependent uptake of TNFα”. Also, the IC50 came out at 20 nM in test [6] and 7.6 nM in test [7]. In addition, the Rmax in [8] (biotinylated folate receptor beta on streptavidin chip) is on record as 17.1 RU. In test [8] (multi-cycle kinetics, 25° C., 1:1 model), this compound returned a kd of 8.7e-05 s⁻¹. In addition, the Kd in test [8] (multi-cycle kinetics, 25° C., 1:1 model, read-out: FOLR2Biotin - SPR Kd) was found to be 0.00867 nM. Further, in test [8] (pH 7.5, multi-cycle kinetics, 25° C., 1:1 model, read-out: ka), the kon came out at 1e+07 M⁻¹ s⁻¹. In addition, the “TC 60 nM taggless TNF normalized” value in [9] (60 nM untagged TNF) is recorded as 15.3%. In addition, in test [9] (150 nM untagged TNF), the “TC 150 nM- tagless TNF Normalized” value is 16.9%. Moreover, the “TC 300 nM- tagless TNF Normalized” value in test [9] (300 nM untagged TNF) is 18.7%.
